According to paper PMC6868087, “Exploiting Curcumin Synergy With Natural Products Using Quantitative Analysis of Dose–Effect Relationships in an Experimental In Vitro Model of Osteoarthritis” (Frontiers in Pharmacology, 2019):
Like-named read-outs stand apart in the source and are kept apart here.

What was measured:
IL-1β mRNA expression = IL-1β mRNA expression (RTqPCR) in LPS-stimulated human articular chondrocytes; Chou-Talalay median-effect and combination index analysis; type: cell-based; conditions: Chondrocyte, 4 h, LPS 2 µg/ml
Description: Human articular chondrocytes (ScienCell, CA, USA) were cultured in the specific Chondrocyte Medium (Cat. 4651; ScienCell, CA, USA) supplemented with 1% antibiotic mixture, in 5% CO2 humidified incubator at 37°C. The medium was renewed every 2 days and confluent chondrocytes were trypsinized, subdivided, and re-plated. In these experiments chondrocytes from passage 3 to 7 were used. Chondrocytes were cultured in six well culture plates at a density of 2.5 × 10^5 cells/well. Sixteen hours after seeding, a set of plates were treated with LPS (2 µg/ml; Escherichia coli serotype 055:B5; […] Total RNA was isolated from human chondrocytes for RTqPCR analysis using Trizol Reagent Kit (Life Technologies, Monza, Italy). […] RTqPCR was performed on both targets and endogenous control using SYBR Premix DimerEraser (Takara, Japan) and QuantStudio 6 Flex Real-Time PCR System (Applied Biosystems, CA, USA). The amplified PCR products were quantified by measuring the calculated cycle thresholds (CT) of targets and β-actin mRNA. The amounts of specific mRNA in samples were calculated using the 2^-ΔΔCT method. The mean value of investigated mRNA levels in LPS or IL-1β-stimulated chondrocytes was chosen as the calibrator, and the results are expressed as % of reduction compared to LPS or IL-1β controls. The IC50 value was calculated by fitting the progress curves to the four-parameter IC50 equation using GraphPad prism software version 5.03 (Graphpad software, CA, USA). Chou and Talalay multiple drug effect analysis was performed and it is based on the median-effect principle ([Chou and Talalay, 1984]; [Chou, 2006]). The Median Effect Equation states that fa/fu = (D/Dm) m, where D is the dose, fa and fu are the affected and the unaffected fractions, respectively, of IL-1β mRNA expression levels, by the dose D; Dm is the dose required to produce the median effect (i.e., IC50), and m is the Hill-type coefficient signifying the sigmoidicity of the dose–effect curve. […] The CI was calculated as: CI=[(D)1/(D50)1]+[(D) 2/(D50)2 […] The CI index was calculated using Grafit software.

[1] = system: Human articular chondrocytes; assay: MTT assay, cell viability of chondrocytes; type: cell-based; conditions: IC50 concentrations, 24 h
Description: Human articular chondrocytes (ScienCell, CA, USA) were cultured in the specific Chondrocyte Medium (Cat. 4651; ScienCell, CA, USA) supplemented with 1% antibiotic mixture, in 5% CO2 humidified incubator at 37°C. The medium was renewed every 2 days and confluent chondrocytes were trypsinized, subdivided, and re-plated. In these experiments chondrocytes from passage 3 to 7 were used. Cell viability was evaluated by MTT assay. Chondrocytes were grown and then treated with IC50 doses when reached confluence. In particular, flavocoxid, curcumin, flavocoxid + curcumin, β-caryophyllene, and β-caryophyllene + curcumin were tested in a 96-well plate at a density of 8 × 10^4 cells/well for 24 h to evaluate the cytotoxic effect. The tetrazolium dye MTT 3-(4,5-dimethylthiazol-2-yl)-2,5-diphenyltetrazolium bromide (Sigma Aldrich, Milan, Italy) was dissolved in sterile filtered PBS, and 20 µl of the mixture were added into each well 5 h before the end of the 24 h of incubation. Medium was removed and the insoluble formazan crystals were dissolved with dimethyl sulfoxide (DMSO; 200 µl/well) following 5 h. The difference between the values obtained at 540 and 620 nm of absorbance was used to calculate the average of replicates and to evaluate cytotoxicity. Results were expressed as % of cell viability compared to untreated cells and reported as means and SD.

NF-κB mRNA expression = NF-κB mRNA expression by RTqPCR in LPS-stimulated chondrocytes; type: cell-based, human; conditions: IC50 doses
Description: (§1) Human articular chondrocytes (ScienCell, CA, USA) were cultured in the specific Chondrocyte Medium (Cat. 4651; ScienCell, CA, USA) supplemented with 1% antibiotic mixture, in 5% CO2 humidified incubator at 37°C. The medium was renewed every 2 days and confluent chondrocytes were trypsinized, subdivided, and re-plated. In these experiments chondrocytes from passage 3 to 7 were used. Chondrocytes were cultured in six well culture plates at a density of 2.5 × 10^5 cells/well. Sixteen hours after seeding, a set of plates were treated with LPS (2 μg/ml; Escherichia coli serotype 055:B5; […] Total RNA was isolated from human chondrocytes for RTqPCR analysis using Trizol Reagent Kit (Life Technologies, Monza, Italy). […] The amplified PCR products were quantified by measuring the calculated cycle thresholds (CT) of targets and β-actin mRNA. The amounts of specific mRNA in samples were calculated using the 2^-ΔΔCT method. The mean value of investigated mRNA levels in LPS or IL-1β-stimulated chondrocytes was chosen as the calibrator, and the results are expressed as % of reduction compared to LPS or IL-1β controls. The IC50 value was calculated by fitting the progress curves to the four-parameter IC50 equation using GraphPad prism software version 5.03 (Graphpad software, CA, USA). […]

STAT3 mRNA expression = STAT3 mRNA expression by RTqPCR in LPS-stimulated chondrocytes; type: cell-based, human; conditions: IC50 doses
Description: as §1

COL2A1 mRNA expression = assay: COL2A1 (type II collagen) mRNA expression by RTqPCR in chondrocytes stimulated with LPS or IL-1β; type: cell-based, human; conditions: IC50 doses
Description: as §1

[2] = matrix not stated; no reference given; cited from earlier work
[3] = curcumin/β-caryophyllene experiment, combination molar ratio 3.6:1, read-out: IC50, reduction of IL-1β mRNA

Compound: COc1cc(/C=C/C(=O)CC(=O)/C=C/c2ccc(O)c(OC)c2)ccc1O [curcumin]
- IC50 (IL-1β mRNA expression; curcumin/flavocoxid experiment, combination molar ratio 7.3:1, read-out: IC50, reduction of IL-1β mRNA): 14.3 µM
- IC50 (IL-1β mRNA expression; [3]): 13.6 µM
- Cell viability (cytotoxic effect), MTT [1]: did not affect chondrocytes viability
- NF-κB mRNA expression (NF-κB mRNA expression): reduced
- STAT3 mRNA expression (STAT3 mRNA expression): reduced
- COL2A1 (type II collagen) mRNA expression (COL2A1 mRNA expression): partially able to restore the mRNA control levels
- half-life [2]: about 3 h

Compound: C=C1CC/C=C(\C)CC[C@@H]2[C@@H]1CC2(C)C [β-caryophyllene]
- IC50 (IL-1β mRNA expression; [3]): 48.9 µM
- Cell viability (cytotoxic effect), MTT [1]: did not affect chondrocytes viability
- NF-κB mRNA expression (NF-κB mRNA expression): reduced
- STAT3 mRNA expression (STAT3 mRNA expression): reduced
- COL2A1 (type II collagen) mRNA expression (COL2A1 mRNA expression): partially able to restore the mRNA control levels
